# Data taken from patent US8580794B2 (AbbVie Inc., priority 2009, dated 2013).
# Target: GST-Bc1-2 (Homo sapiens, UniProt P10415)
# Assay: Time Resolved-Fluorescence Resonance Energy Transfer (TR-FRET) Bcl-2 binding assay with F-Bak peptide probe
# Settings: GST-Bcl-2 1 nM, F-Bak probe 100 nM, Tb-anti-GST 1 nM; '<' = below limit of detection; read-out: TR-FRET Bcl-2 Binding Ki
# Sequence of GST-Bc1-2 (P10415 whole entry): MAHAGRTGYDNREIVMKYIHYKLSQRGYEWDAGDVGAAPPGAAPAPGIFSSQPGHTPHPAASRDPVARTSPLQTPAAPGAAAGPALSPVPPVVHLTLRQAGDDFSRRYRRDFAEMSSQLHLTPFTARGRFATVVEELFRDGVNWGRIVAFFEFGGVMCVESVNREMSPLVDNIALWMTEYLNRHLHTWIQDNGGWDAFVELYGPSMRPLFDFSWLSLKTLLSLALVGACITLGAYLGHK
row,SMILES,Ki [pM]
1,"CC(=O)N1CCC(Nc2ccc(S(=O)(=O)NC(=O)c3ccc(N4CCN(CC5=C(c6ccc(Cl)cc6)CC(C)(C)CC5)CC4)cc3Oc3cnc4[nH]ccc4c3)cc2[N+](=O)[O-])CC1 [Example 53, N-({4-[(1-acetylpiperidin-4-yl)amino]-3-nitrophenyl}sulfonyl)-4-(4-{[2-(4-chlorophenyl)-4,4-dimethylcyclohex-1-en-1-yl]methyl}piperazin-1-yl)-2-(1H-pyrrolo[2,3-b]pyridin-5-yloxy)benzamide]",< 10
2,"CC1(C)CCC(CN2CCN(c3ccc(C(=O)NS(=O)(=O)c4cnc(OCC5COCCO5)c(Br)c4)c(Oc4cnc5[nH]ccc5c4)c3)CC2)=C(c2ccc(Cl)cc2)C1 (centres unmarked) [Example 50, N-{[5-bromo-6-(1,4-dioxan-2-ylmethoxy)pyridin-3-yl]sulfonyl}-4-(4-{[2-(4-chlorophenyl)-4,4-dimethylcyclohex-1-en-1-yl]methyl}piperazin-1-yl)-2-(1H-pyrrolo[2,3-b]pyridin-5-yloxy)benzamide]",21
3,"CN(C)CC(=O)N1CCO[C@H](CNc2ccc(S(=O)(=O)NC(=O)c3ccc(N4CCN(CC5=C(c6ccc(Cl)cc6)CC(C)(C)CC5)CC4)cc3Oc3cnc4[nH]ccc4c3)cc2[N+](=O)[O-])C1 [Example 258, 4-(4-{[2-(4-chlorophenyl)-4,4-dimethylcyclohex-1-en-1-yl]methyl}piperazin-1-yl)-N-{[4-({[(2R)-4-(N,N-dimethylglycyl)morpholin-2-yl]methyl}amino)-3-nitrophenyl]sulfonyl}-2-(1H-pyrrolo[2,3-b]pyridin-5-yloxy)benzamide]",< 10
4,"CC1(C)CCC(CN2CCN(c3ccc(C(=O)NS(=O)(=O)c4ccc(NCCCN(C5CC5)C5COC5)c([N+](=O)[O-])c4)c(Oc4cnc5[nH]ccc5c4)c3)CC2)=C(c2ccc(Cl)cc2)C1 [Example 311, 4-(4-{[2-(4-chlorophenyl)-4,4-dimethylcyclohex-1-en-1-yl]methyl}piperazin-1-yl)-N-{[4-({3-[cyclopropyl(oxetan-3-yl)amino]propyl}amino)-3-nitrophenyl]sulfonyl}-2-(1H-pyrrolo[2,3-b]pyridin-5-yloxy)benzamide]",< 10
5,"CC1(C)CCC(CN2CCN(c3ccc(C(=O)NS(=O)(=O)c4cnc(OCC5COCCO5)c(C#N)c4)c(Oc4cnc5[nH]ccc5c4)c3)CC2)=C(c2ccc(Cl)cc2)C1 (centres unmarked) [Example 49, 4-(4-{[2-(4-chlorophenyl)-4,4-dimethylcyclohex-1-en-1-yl]methyl}piperazin-1-yl)-N-{[5-cyano-6-(1,4-dioxan-2-ylmethoxy)pyridin-3-yl]sulfonyl}-2-(1H-pyrrolo[2,3-b]pyridin-5-yloxy)benzamide]",74
6,"CC1(C)CCC(CN2CCN(c3ccc(C(=O)NS(=O)(=O)c4ccc(OCC5CCN(C6COC6)CC5)c(Cl)c4)c(Oc4cnc5[nH]ccc5c4)c3)CC2)=C(c2ccc(Cl)cc2)C1 [Example 309, N-[(3-chloro-4-{[1-(oxetan-3-yl)piperidin-4-yl]methoxy}phenyl)sulfonyl]-4-(4-{[2-(4-chlorophenyl)-4,4-dimethylcyclohex-1-en-1-yl]methyl}piperazin-1-yl)-2-(1H-pyrrolo[2,3-b]pyridin-5-yloxy)benzamide]",23
7,"CC1(C)CCC(CN2CCN(c3ccc(C(=O)NS(=O)(=O)c4ccc(NC5CCC(N6CCC(F)(F)C6)CC5)c([N+](=O)[O-])c4)c(Oc4cnc5[nH]ccc5c4)c3)CC2)=C(c2ccc(Cl)cc2)C1 (centres unmarked) [Example 346, 4-(4-{[2-(4-chlorophenyl)-4,4-dimethylcyclohex-1-en-1-yl]methyl}piperazin-1-yl)-N-[(4-{[4-(3,3-difluoropyrrolidin-1-yl)cyclohexyl]amino}-3-nitrophenyl)sulfonyl]-2-(1H-pyrrolo[2,3-b]pyridin-5-yloxy)benzamide]",42
8,"CC1(C)CCC(CN2CCN(c3ccc(C(=O)NS(=O)(=O)c4cnc(OCC5CCOCC5)c(C(F)(F)F)c4)c(Oc4cnc5[nH]ccc5c4)c3)CC2)=C(c2ccc(Cl)cc2)C1 [Example 297, 4-(4-{[2-(4-chlorophenyl)-4,4-dimethylcyclohex-1-en-1-yl]methyl}piperazin-1-yl)-2-(1H-pyrrolo[2,3-b]pyridin-5-yloxy)-N-{[6-(tetrahydro-2H-pyran-4-ylmethoxy)-5-(trifluoromethyl)pyridin-3-yl]sulfonyl}benzamide]",174
9,"CC1(C)CCC(CN2CCN(c3ccc(C(=O)NS(=O)(=O)c4ccc(NC5CCN(C(C)(C)C)CC5)c([N+](=O)[O-])c4)c(Oc4cnc5[nH]ccc5c4)c3)CC2)=C(c2ccc(Cl)cc2)C1 [Example 227, N-({4-[(1-tert-butylpiperidin-4-yl)amino]-3-nitrophenyl}sulfonyl)-4-(4-{[2-(4-chlorophenyl)-4,4-dimethylcyclohex-1-en-1-yl]methyl}piperazin-1-yl)-2-(1H-pyrrolo[2,3-b]pyridin-5-yloxy)benzamide]",< 10
10,"CC(C)N1CCC2(CCC(c3ccc(Cl)cc3)=C(CN3CCN(c4ccc(C(=O)NS(=O)(=O)c5cnc(OCC6CCOCC6)c(Cl)c5)c(Oc5cnc6[nH]ccc6c5)c4)CC3)C2)CC1 [Example 268, 4-(4-{[9-(4-chlorophenyl)-3-isopropyl-3-azaspiro[5.5]undec-8-en-8-yl]methyl}piperazin-1-yl)-N-{[5-chloro-6-(tetrahydro-2H-pyran-4-ylmethoxy)pyridin-3-yl]sulfonyl}-2-(1H-pyrrolo[2,3-b]pyridin-5-yloxy)benzamide]",< 10
11,"CN1CCC(CNc2ccc(S(=O)(=O)NC(=O)c3ccc(N4CCN(CC5=C(c6ccc(Cl)cc6)CC(C)(C)CC5)CC4)cc3Oc3cnc4[nH]ccc4c3)cc2[N+](=O)[O-])CC1 [Example 65, 4-(4-{[2-(4-chlorophenyl)-4,4-dimethylcyclohex-1-en-1-yl]methyl}piperazin-1-yl)-N-[(4-{[(1-methylpiperidin-4-yl)methyl]amino}-3-nitrophenyl)sulfonyl]-2-(1H-pyrrolo[2,3-b]pyridin-5-yloxy)benzamide]",< 10
12,"CC1(C)CCC(CN2CCN(c3ccc(C(=O)NS(=O)(=O)c4cnc(OCC5(F)CCOCC5)c(Cl)c4)c(Oc4cnc5[nH]ccc5c4)c3)CC2)=C(c2ccc(Cl)cc2)C1 [Example 96, N-({5-chloro-6-[(4-fluorotetrahydro-2H-pyran-4-yl)methoxy]pyridin-3-yl}sulfonyl)-4-(4-{[2-(4-chlorophenyl)-4,4-dimethylcyclohex-1-en-1-yl]methyl}piperazin-1-yl)-2-(1H-pyrrolo[2,3-b]pyridin-5-yloxy)benzamide]",14
13,"CO[C@H]1CC[C@H](COc2ncc(S(=O)(=O)NC(=O)c3ccc(N4CCN(CC5=C(c6ccc(Cl)cc6)CC(C)(C)CC5)CC4)cc3Oc3cnc4[nH]ccc4c3)cc2Cl)CC1 [Example 210, Trans-N-({5-chloro-6-[(4-methoxycyclohexyl)methoxy]pyridin-3-yl}sulfonyl)-4-(4-{[2-(4-chlorophenyl)-4,4-dimethylcyclohex-1-en-1-yl]methyl}piperazin-1-yl)-2-(1H-pyrrolo[2,3-b]pyridin-5-yloxy)benzamide]",11

# Same assay, conditions: TR-FRET Bcl-2 Binding Ki
row,SMILES,Ki [pM]
1,"CC1(C)CCC(CN2CCN(c3ccc(C(=O)NS(=O)(=O)c4ccc(NC(=O)N5CCOCC5)c([N+](=O)[O-])c4)c(Oc4cnc5[nH]ccc5c4)c3)CC2)=C(c2ccc(Cl)cc2)C1 [Example 373, N-(4-{[4-(4-{[2-(4-chlorophenyl)-4,4-dimethylcyclohex-1-en-1-yl]methyl}piperazin-1-yl)-2-(1H-pyrrolo[2,3-b]pyridin-5-yloxy)benzoyl]sulfamoyl}-2-nitrophenyl)morpholine-4-carboxamide]",< 1
